US9790218B2, “Small molecule activators of calcium-activated chloride channels and methods of use” (The Regents of the University of California, priority 2011, dated 2017)
Read-outs that look alike come from different tables or passages of the source.

Tests used:
TMEM16A [1] = biological target: T1, TMEM16A (Homo sapiens, UniProt Q5XXA6, DEL476-501); assay: Fluorescence plate reader assay of TMEM16A-mediated I^− influx (YFP halide sensor); format: cell-based; conditions: for EC50 (μM) / EC50: fluorescence plate reader assay; for EC50: read-out: EC50; for TMEM16A conductance, F class SAR: synthesized F class analogs
T1 construct: expressed in transfected cells
T1 sequence (Q5XXA6 with tags, fused parts or gaps isoform Q5XXA6-5 DEL539-564): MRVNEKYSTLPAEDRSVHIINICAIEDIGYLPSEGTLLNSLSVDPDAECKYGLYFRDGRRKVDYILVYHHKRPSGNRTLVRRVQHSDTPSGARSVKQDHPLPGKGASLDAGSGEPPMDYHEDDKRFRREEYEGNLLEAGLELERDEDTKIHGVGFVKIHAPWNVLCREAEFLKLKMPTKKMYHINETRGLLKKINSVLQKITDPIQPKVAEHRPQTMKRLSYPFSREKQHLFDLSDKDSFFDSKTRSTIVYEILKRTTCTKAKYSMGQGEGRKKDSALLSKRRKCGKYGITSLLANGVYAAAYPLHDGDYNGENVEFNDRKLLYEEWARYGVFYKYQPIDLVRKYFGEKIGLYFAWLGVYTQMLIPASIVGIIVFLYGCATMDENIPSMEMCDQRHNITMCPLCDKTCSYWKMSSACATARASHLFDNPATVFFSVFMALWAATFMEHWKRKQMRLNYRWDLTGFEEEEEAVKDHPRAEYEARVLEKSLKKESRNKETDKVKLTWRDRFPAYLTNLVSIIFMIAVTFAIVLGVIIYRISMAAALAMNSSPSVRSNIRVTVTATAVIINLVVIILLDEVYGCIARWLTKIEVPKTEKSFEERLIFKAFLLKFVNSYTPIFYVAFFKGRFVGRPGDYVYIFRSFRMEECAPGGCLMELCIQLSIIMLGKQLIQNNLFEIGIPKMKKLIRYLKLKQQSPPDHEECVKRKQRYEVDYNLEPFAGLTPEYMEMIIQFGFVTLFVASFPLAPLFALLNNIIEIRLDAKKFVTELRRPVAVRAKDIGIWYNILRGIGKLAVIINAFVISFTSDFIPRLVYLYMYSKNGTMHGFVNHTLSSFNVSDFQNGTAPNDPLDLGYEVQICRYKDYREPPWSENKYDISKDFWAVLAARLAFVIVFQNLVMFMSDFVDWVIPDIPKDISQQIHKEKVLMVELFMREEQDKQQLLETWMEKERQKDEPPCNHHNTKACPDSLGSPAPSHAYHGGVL
Method: (§1) FRT cells were stably transfected with human TMEM16A (TMEM16A(abc), cDNA provided by Dr. Luis Galietta, Gaslini Institute, Genoa, Italy) and the halide sensor YFP-H148Q/1152L/F46L. Cells were plated in 96-well black-walled microplates (Corning Inc., Corning, N.Y.) at a density of 20,000 cells per well in Coon's modified F12 medium supplemented with 5% fetal calf serum, 2 mM L-glutamine, 100 U/mL penicillin and 100 μg/mL streptomycin. The human submandibular cell line A253 (ATCC HTB 41) was cultured in complete McCoy's 5A medium supplemented with 10% fetal bovine serum, 100 U/mL penicillin and 100 μg/mL streptomycin.
TMEM16A activators were identified from screening of ˜110,000 synthetic drug-like compounds, purified natural products and approved/investigational drugs. The cell-based screen employs FRT cells coexpressing human TMEM16A and the I^−-sensing yellow fluorescent protein YFP-H148Q/1152L/F46L. FRT cells were chosen because of their low basal I^− and Cl^− transport, rapid growth on uncoated plastic, strong stable expression of transfected proteins, and formation of tight junctions for measurements of transepithelial short-circuit current (Ma et al., supra).
High-throughput screening was done using an automated screening platform (Beckman) equipped with FluoStar fluorescence plate readers (BMG Lab Technologies, Durham, N.C.) as described (Ma et al., supra). Each well of a 96-well plate was washed 3 times with PBS (200 μL/wash), leaving 50 μL PBS. Test compounds (0.5 μL) were added to each well at […]. After 10 min, 96-well plates were transferred to a plate reader for fluorescence assay. Each well was assayed individually for TMEM16A-mediated I^− influx by recording fluorescence continuously (400 ms per point) for 2 s (baseline), then 50 μL of a 140 mM I^− solution was added. The initial rate of I^− influx was computed from fluorescence data by non-linear regression.
As diagrammed in FIG. 1A, test compounds at 25 μM final concentration were added 10 min prior to I^− addition. The 10 min incubation was chosen to allow for compound transport into cytoplasm and to minimize false positives from compounds that elevate cytoplasmic Ca^2+ transiently. Fluorescence from individual wells of 96-well plates was measured just prior to and for 6 s after I^− addition for computation of initial I^− influx rate.

[2] = system: mouse ileal smooth muscle; assay: Intestinal smooth muscle contraction, ex vivo mouse ileal segments; conditions: Eact 10 μM, carbachol 1 μM following atropine
Method: FIG. 8A-C. Intestinal smooth muscle contraction. FIG. 8A. Representative traces from mouse ileal segments showing effects of T16Ainh-A01 (10 μM), carbachol (CCh, 1 μM) and Eact (10 μM). FIG. 8B. Effect of CCh (1 μM) and Eact (10 μM) following atropine (1 μM). FIG. 8C. Summary of contraction frequency (left), and resting and maximum tone (right) (mean±S.E., n=4-7, * P<0.05).
Wild type CD1 mice (age 8-10 weeks) were killed by avertin overdose (200 mg/kg). The ileum removed and washed with ice-cold HCO3^−-buffered solution. The ends of the ileal segments were tied with silk thread and connected to a force transducer. Beal segments were equilibrated for 60 min with a resting force of ˜1 mN, with changes of the bathing solution every 15 min. Tension was monitored continuously with a fixed-range precision force transducer (TSD, 125 C; Biopac, Goleta, Calif.) connected to a differential amplifier (DA 100B; Biopac). Data were recorded using MP100, Biopac digital acquisition system and analyzed using Acknowledge 3.5.7 software.
TMEM16A in expressed in the interstitial cells of Cajal, the pacemaker cells that control smooth muscle contraction dynamics in stomach and intestine (Huang et al., supra; Gomez-Pinilla et al. (2009) Am. J. Physiol. Gastrointest. Liver Physiol. 296, G1370-1381). The effect of Eact on mouse ileal smooth muscle contraction was investigated using an ex vivo intestinal preparation. […] Without wishing to be bound by theory, the constitutive TMEM16A activity in this ex vivo preparation could obscure Eact activity. To reveal Eact effects, atropine was first added to inhibit basal contractions. […] FIG. 8C summarizes data on contraction frequency, resting tone and maximal tone.

TMEM16A [3] = biological target: T1, TMEM16A; assay: Apical membrane current in TMEM16A-expressing FRT cells; format: cell-based; conditions: basolateral membrane permeabilized, Cl^− gradient; ATP 100 μM
Method: as §1
Snapwell inserts containing TMEM16A-expressing FRT, HBE, CF HBE or HTG cells were mounted in Ussing chambers (Physiologic Instruments, San Diego, Calif.). Amiloride, CFTRinh-172, UTP, ATP, T16Ainh-A01 and TMEM16A activators were added to the apical solution and an equal volume of vehicle was added at the same time to the basolateral solution. Symmetrical HCO3^−-buffered solutions were used for HBE, CF HBE and HTG cells. For FRT cells, the hemichambers were filled with a half-Cl^− solution (apical) and the HCO3^−-buffered solution (basolateral), and the basolateral membrane was permeabilized with 250 μg/mL amphotericin B, as described (Namkung et al. (2010), supra). Cells were bathed for a 10 min stabilization period and aerated with 95% O2/5% CO2 at 37° C. or room temperature. Apical membrane current (for FRT cells) and short-circuit current were measured using an EVC4000 Multi-Channel V/I Clamp (World Precision Instruments, Sarasota, Fla.) and recorded using PowerLab/8sp (AD Instruments, Castle Hill, Australia).
The current increase was sustained for >10 min (FIG. 2B, inset). […] Data are also shown for a second Fact compound (Fact9, see Table 1) in FIG. 9.

Q: For `O=C(Nc1ccccc1Br)c1cccc(-n2cnnn2)c1` [2-bromophenyl], which “EC50 (μM)” value (TMEM16A [1]; Fact analogs) is on record?
A: inactive

Q: With `O=C(Nc1ccc(Br)c(C(F)(F)F)c1)c1cccc(-n2cnnn2)c1` [4-bromo-3-trifluoromethylphenyl] as the molecule, how does the EC50 (TMEM16A [1]; Fact analogs) read?
A: 55 µM

Q: What does the source list for `O=C(Nc1ccc(Cl)cc1)c1cccc(-n2cnnn2)c1` [4-chlorophenyl]?
A: EC50 (μM) (TMEM16A [1]; Fact analogs): inactive; TMEM16A conductance, F class SAR (TMEM16A [1]): low activity

Q: Which EC50 (TMEM16A [1]; Eact analogs) does the source give for `COc1ccc(-c2csc(N(Cc3ccccc3)C(=O)c3cc(OC)c(OC)c(OC)c3)n2)cc1` [benzyl / 4-methoxyphenyl] here?
A: 4 µM

Q: Which “EC50 (μM)” value (TMEM16A [1]; Fact analogs) does the source give for `O=C(Nc1ccc([N+](=O)[O-])cc1)c1cccc(-n2cnnn2)c1` [4-nitrophenyl] here?
A: inactive

Q: And the “TMEM16A conductance, F class SAR” value (TMEM16A [1])?
A: low activity

Q: With `CN1[C@@H]2CC[C@H]1C[C@@H](OC(=O)C(CO)c1ccccc1)C2` (stereo partly drawn) [atropine] as the molecule, how does the “contraction after atropine (1 μM)” value [2] read?
A: prevented the carbachol effect

Q: What does the source list for `CN(C)c1ccc(NC(=O)c2cccc(-n3cnnn3)c2)cc1` [4-(N,N-dimethylamino)phenyl]?
A: EC50 (μM) (TMEM16A [1]; Fact analogs): inactive; TMEM16A conductance, F class SAR (TMEM16A [1]): low activity

Q: `COc1ccc(CC(=O)N(Cc2ccncc2)c2nc(-c3ccccc3)cs2)c(OC)c1OC` [(pyrid-4-yl)methyl / phenyl, N-(4-pyridylmethyl)-N-(4-phenyl-2-thiazolyl)-2,3,4-trimethoxybenzeneacetamide] was tested. Which EC50 (TMEM16A [1]; Eact analogs) did it give?
A: 2 µM

Q: How did the “Cl^− current (apical membrane current)” value (TMEM16A [3]) turn out when `Nc1ncnc2c1ncn2[C@@H]1O[C@H](COP(=O)(O)OP(=O)(O)OP(=O)(O)O)[C@@H](O)[C@H]1O` [ATP, reference compound] was run?
A: large but transient elevation in Cl^− current

Q: `O=C(Nc1cccc(Br)c1)c1cccc(-n2cnnn2)c1` [3-bromophenyl] was tested. Which “EC50 (μM)” value (TMEM16A [1]; Fact analogs) did it give?
A: inactive

Q: `CC(C)c1ccc(NC(=O)c2cccc(-n3cnnn3)c2)cc1` [Fact9, N-(4-isopropylphenyl)-3-(1H-tetrazol-1-yl)benzamide] was tested. Which “Cl^− current (apical membrane current)” value (TMEM16A [3]) did it give?
A: stimulated TMEM16A Cl^− current

Q: And the EC50 (TMEM16A [1]; Fact analogs)?
A: 11 µM
